These are literature values, as cited in patent publication US20230390178A1, “Skin Care Compositions and Methods of Use” (Colgate-Palmolive Company, priority 2022, published 2023).

As for `O=C1O[C@H]([C@@H](O)CO)C(O)=C1O[C@H]1O[C@H](CO)[C@@H](O)[C@H](O)[C@H]1O` [ascorbyl glucoside], the “Log P” value was −2.5.
